From patent publication US20250011314A1, “MICROBIOCIDAL PYRAZOLE DERIVATIVES” (SYNGENTA CROP PROTECTION AG, priority 2021, published 2025)

Assays:
[1] = tested on: Glomerella lagenarium (Colletotrichum lagenarium); test: Glomerella lagenarium (Colletotrichum lagenarium) / liquid culture (anthracnose); type: cell-based; settings: Colletotrichum orbiculare, liquid culture (PDB), 24° C., growth inhibition photometrically 3-4 days after application, read-out: control of Glomerella lagenarium compared to untreated control
Experimental: (§1) Example B-3: Glomerella lagenarium (Colletotrichum lagenarium)/Liquid Culture (Anthracnose) Conidia of the fungus from cryogenic storage are directly mixed into nutrient broth (PDB potato dextrose broth). After placing a (DMSO) solution of test compound into a microtiter plate (96-well format), the nutrient broth containing the fungal spores is added. The test plates are incubated at 24° C. and the inhibition of growth is measured photometrically 3-4 days after application.

[2] = tested on: Mycosphaerella graminicola (Septoria tritici); test: Mycosphaerella graminicola (Septoria tritici) / liquid culture (Septoria blotch); type: cell-based; settings: Zymoseptoria tritici, liquid culture (PDB), 24° C., growth inhibition photometrically 4-5 days after application, read-out: control of Mycosphaerella graminicola compared to untreated control
Experimental: as §1, with “B-12: Mycosphaerella graminicola (Septoria tritici)/Liquid” for “B-3: Glomerella lagenarium (Colletotrichum lagenarium)/Liquid”, “(Septoria Blotch)” for “(Anthracnose)”, “determined” for “measured”, “4-5” for “3-4”

[3] = tested on: Monographella nivalis (Microdochium nivale); test: Monographella nivalis (Microdochium nivale) / liquid culture (foot rot cereals); type: cell-based; settings: liquid culture (PDB), 24° C., growth inhibition photometrically 4-5 days after application, read-out: control of Monographella nivalis compared to untreated control
Experimental: as §1, with “B-7: Monographella Nivalis (Microdochium nivale)/Liquid” for “B-3: Glomerella lagenarium (Colletotrichum lagenarium)/Liquid”, “(Foot Rot Cereals)” for “(Anthracnose)”, “determined” for “measured”, “4-5” for “3-4”

[4] = tested on: Magnaporthe grisea (Pyricularia oryzae); type: in vivo; settings: 200 ppm; rice leaf segments cv. Ballila; inoculated 2 days after application; assessed 5-7 days after application

Structure (SMILES) | inhibition of growth at 20 ppm [1] | inhibition of growth at 20 ppm [2] | inhibition of growth at 20 ppm [3] | control of Magnaporthe grisea compared to untreated control [4]
Cn1cc(C(C)(CNC(=O)c2cc(-c3ccc(F)cc3F)on2)c2nc(Br)cs2)cn1 (stereo not shown) [Compound P-8, N-[2-(4-bromothiazol-2-yl)-2-(1-methylpyrazol-4-yl)propyl]-5-(2,4-difluorophenyl) isoxazole-3-carboxamide] | ≥ 80% | ≥ 80% | ≥ 80% | –
Cn1cc(C(C)(CNC(=O)c2cc(-c3ccc(F)cc3F)on2)c2nc(C3CC3)cs2)cn1 (stereo not shown) [Compound P-11, N-[2-(4-cyclopropylthiazol-2-yl)-2-(1-methylpyrazol-4-yl)propyl]-5-(2,4-difluorophenyl) isoxazole-3-carboxamide] | ≥ 80% | ≥ 80% | ≥ 80% | –
Cn1cc(C(C)(CNC(=O)c2cc(-c3ccc(F)cc3F)on2)c2nc(Cl)cs2)cn1 (single isomer, unassigned) [Compound P-5, N-[2-(4-chlorothiazol-2-yl)-2-(1-methylpyrazol-4-yl)propyl]-5-(2,4-difluorophenyl) isoxazole-3-carboxamide] | ≥ 80% | ≥ 80% | ≥ 80% | –
Cn1cc(C(C)(CNC(=O)c2cc(-c3ccc(F)cc3F)on2)c2nc(Cl)cs2)cn1 (racemic) [Compound P-4, N-[2-(4-chlorothiazol-2-yl)-2-(1-methylpyrazol-4-yl)propyl]-5-(2,4-difluorophenyl)isoxazole-3-carboxamide] | ≥ 80% | ≥ 80% | ≥ 80% | –
Cn1cc(C(C)(CNC(=O)c2cc(-c3ccc(F)cc3F)on2)c2ccn(C)n2)cn1 (stereo not shown) [Compound P-1, 5-(2,4-difluorophenyl)-N-[2-(1-methylpyrazol-3-yl)-2-(1-methylpyrazol-4-yl)propyl]isoxazole-3-carboxamide] | ≥ 80% | ≥ 80% | ≥ 80% | at least 80%
Cn1cc(C(C)(CNC(=O)c2cc(-c3ccc(F)cc3F)on2)c2csc(Br)n2)cn1 (stereo not shown) [Compound P-10, N-[2-(2-bromothiazol-4-yl)-2-(1-methylpyrazol-4-yl)propyl]-5-(2,4-difluorophenyl) isoxazole-3-carboxamide] | ≥ 80% | ≥ 80% | ≥ 80% | –
Cn1cc(C(C)(CNC(=O)c2cc(-c3ccc(F)cc3F)on2)c2nc(C(F)(F)F)cs2)cn1 (stereo not shown) [Compound P-9, 5-(2,4-difluorophenyl)-N-[2-(1-methylpyrazol-4-yl)-2-[4-(trifluoromethyl)thiazol-2-yl]propyl]isoxazole-3-carboxamide] | ≥ 80% | ≥ 80% | ≥ 80% | –
Cn1cc(C(C)(CNC(=O)c2cc(-c3ccc(F)cc3F)on2)c2nccs2)cn1 (stereo not shown) [Compound P-2, 5-(2,4-difluorophenyl)-N-[2-(1-methylpyrazol-4-yl)-2-thiazol-2-yl-propyl]isoxazole-3-carboxamide] | ≥ 80% | ≥ 80% | ≥ 80% | –
Cn1cc(C(C)(CNC(=O)c2cc(-c3ccc(F)cc3F)on2)c2ncc(Br)s2)cn1 (stereo not shown) [Compound P-7, N-[2-(5-bromothiazol-2-yl)-2-(1-methylpyrazol-4-yl)propyl]-5-(2,4-difluorophenyl) isoxazole-3-carboxamide] | ≥ 80% | ≥ 80% | ≥ 80% | –
Cn1cc(C(C)(CNC(=O)c2cc(-c3ccc(F)cc3F)on2)c2nc(Cl)c(Cl)s2)cn1 (stereo not shown) [Compound P-3, N-[2-(4,5-dichlorothiazol-2-yl)-2-(1-methylpyrazol-4-yl)propyl]-5-(2,4-difluorophenyl)isoxazole-3-carboxamide] | ≥ 80% | ≥ 80% | ≥ 80% | –
